According to the supplement of paper PMC10307832:

Assays:
Test in all cases: relative viability (nuclei count vs DMSO), 5 days (fraction); higher = more cells survive
Salubrinal + Lapatinib = compound: O=C(/C=C/c1ccccc1)NC(NC(=S)Nc1cccc2cccnc12)C(Cl)(Cl)Cl [Salubrinal] + CS(=O)(=O)CCNCc1ccc(-c2ccc3ncnc(Nc4ccc(OCc5cccc(F)c5)c(Cl)c4)c3c2)o1 [Lapatinib] (partner 2 µM)
How it was run: (§1)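 Cells from lung cancer lines were seeded into 1536-well plates and, one day later, dosed by pin tool. Treatments were either a single drug or a fixed dose of an anchor drug with five library-drug doses (not always all listed) in √10 steps. After 5 days, nuclei were stained in a one-step fixation (final 0.05% Triton X-100, 1% formaldehyde, 1 ug/ml Hoechst) and counted on 4× images, and relative viability is the treated-to-vehicle nuclei ratio, as the median of duplicate plates.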

[1] = compound: Cc1ccc2nc(NCCN)c3ncc(C)n3c2c1 + CS(=O)(=O)N1CCN(Cc2cc3nc(-c4cccc5[nH]ncc45)nc(N4CCOCC4)c3s2)CC1 [Pictilisib] (partner 1 µM)
How it was run: as §1

Salubrinal + Alpelisib = compound: O=C(/C=C/c1ccccc1)NC(NC(=S)Nc1cccc2cccnc12)C(Cl)(Cl)Cl [Salubrinal] + Cc1nc(NC(=O)N2CCC[C@H]2C(N)=O)sc1-c1ccnc(C(C)(C)C(F)(F)F)c1 [Alpelisib] (partner 2 µM)
How it was run: as §1

[2] = compound: Cc1ccc2nc(NCCN)c3ncc(C)n3c2c1 + CS(=O)(=O)CCNCc1ccc(-c2ccc3ncnc(Nc4ccc(OCc5cccc(F)c5)c(Cl)c4)c3c2)o1 [Lapatinib] (partner 2 µM)
How it was run: as §1

Row | Cell Line | relative viability (Salubrinal + Lapatinib; first compound 0.08 µM) | relative viability (Salubrinal + Lapatinib; first compound 0.253 µM) | relative viability (Salubrinal + Lapatinib; first compound 0.8 µM) | relative viability (Salubrinal + Lapatinib; first compound 2.53 µM) | relative viability (Salubrinal + Lapatinib; first compound 8 µM) | relative viability ([1]; first compound 0.04 µM) | relative viability ([1]; first compound 0.1265 µM) | relative viability ([1]; first compound 0.4 µM) | relative viability ([1]; first compound 1.265 µM) | relative viability ([1]; first compound 4 µM) | relative viability (Salubrinal + Alpelisib; first compound 0.08 µM) | relative viability (Salubrinal + Alpelisib; first compound 0.253 µM) | relative viability (Salubrinal + Alpelisib; first compound 0.8 µM) | relative viability (Salubrinal + Alpelisib; first compound 2.53 µM) | relative viability (Salubrinal + Alpelisib; first compound 8 µM) | relative viability ([2]; first compound 0.04 µM) | relative viability ([2]; first compound 0.1265 µM) | relative viability ([2]; first compound 0.4 µM) | relative viability ([2]; first compound 1.265 µM) | relative viability ([2]; first compound 4 µM)
1 | LU99A | 1.17 | 1.15 | 1.13 | 0.945 | 0.594 | 0.346 | 0.328 | 0.327 | 0.349 | 0.321 | 0.644 | 0.559 | 0.66 | 0.476 | 0.53 | 1 | 0.944 | 1.06 | 0.957 | 0.986
2 | NCI-H1355 | 1.09 | 1.03 | 0.996 | 1.01 | 1.03 | 0.46 | 0.449 | 0.406 | 0.392 | 0.386 | 0.955 | 0.942 | 0.884 | 0.852 | 0.779 | 1.02 | 0.981 | 0.962 | 0.952 | 0.988
3 | HCC-78 | 0.4 | 0.795 | 1.06 | 0.788 | 0.832 | 0.229 | 0.23 | 0.222 | 0.215 | 0.217 | 0.345 | 0.377 | 0.349 | 0.307 | 0.316 | 1.03 | 0.738 | 0.775 | 0.861 | 0.697
4 | NCI-H1563 | 0.992 | 1.05 | 0.975 | 0.886 | 0.882 | 0.706 | 0.582 | 0.701 | 0.607 | 0.633 | 0.882 | 0.939 | 1.1 | 0.925 | 0.878 | 0.963 | 1 | 0.88 | 1.15 | 0.88
5 | HCC-15 | 0.902 | 0.736 | 1 | 0.88 | 0.875 | 0.799 | 0.761 | 0.666 | 0.707 | 0.694 | 0.988 | 0.789 | 0.994 | 0.94 | 0.945 | 0.888 | 0.811 | 0.776 | 0.75 | 0.737
6 | EKVX | 0.2 | 0.239 | 0.199 | 0.181 | 0.216 | 0.406 | 0.356 | 0.416 | 0.329 | 0.338 | 1.14 | 0.729 | 1.01 | 0.887 | 0.88 | 0.232 | 0.197 | 0.216 | 0.283 | 0.213
7 | NCI-H2087 | 1.04 | 1.06 | 1.16 | 0.93 | 1.1 | 1.05 | 0.824 | 0.816 | 0.981 | 0.984 | 1.14 | 0.861 | 1.05 | 1.33 | 1.09 | 1.25 | 1.14 | 1.16 | 1.08 | 1.07
8 | LK-2 | 1.07 | 0.977 | 1.16 | 0.994 | 0.85 | 0.585 | 0.547 | 0.604 | 0.406 | 0.463 | 1.33 | 1.07 | 1.23 | 1.19 | 1.08 | 0.961 | 0.879 | 0.823 | 0.748 | 0.761
